Legend:
Assay in all cases: CTG-3D luminescence at 96 h relative to day-0 seeding control (ratio to day 0); higher = more growth / less cytotoxicity; PDxO 3D drug screen, 96 h, CTG-3D normalised to day-0 seeding control.
[1] = system: HCI-024 (organoid from a breast cancer xenograft)
[2] = system: HCI-012 (organoid from a breast cancer xenograft)
[3] = system: HCI-003.E2 (organoid from an ER-positive breast cancer xenograft)
[4] = system: MDA-MB-231
[5] = system: HCI-027 (organoid from a triple-negative breast cancer xenograft)
[6] = system: HCI-019 (organoid from a triple-negative breast cancer xenograft)
[7] = system: HCI-023 (organoid from a triple-negative breast cancer xenograft)

C[C@@H]1COCCN1c1cc(C2([S@](C)(=N)=O)CC2)nc(-c2cc[nH]c3nccc2-3)n1 [ceralasertib]
CTG-3D luminescence at 96 h
Settings | 12.5 pM | 0.00025 µM | 0.005 µM | 0.1 µM | 1 µM | 10 µM | 100 µM | 625 fM
[1], days in culture: 105 | 1.68 | 1.61 | 1.35 | 1.5 | 0.841 | 0.567 | 0.521 | 1.93
[1], days in culture: 122 | 2.12 | 2.11 | 1.89 | 2 | 1.23 | 0.742 | 0.54 | 2.57
[1], days in culture: 163 | 1.95 | 1.91 | 1.68 | 2.32 | 1.38 | 0.897 | 0.977 | 2.29
[2], days in culture: 143 | 2.09 | 2.04 | 2.05 | 2.14 | 1.8 | 0.748 | 0.319 | 2.02
[2], days in culture: 162 | 2.52 | 2.31 | 2.18 | 3.14 | 1.92 | 1.3 | 0.451 | 3.18
[2], days in culture: 201 | 2.62 | 2.22 | 1.56 | 1.68 | 2.3 | 0.577 | 0.973 | 1.75
[5], days in culture: 176 | 2 | 1.26 | 2.33 | 1.47 | 0.682 | 0.114 | 0.29 | 2.06
[5], days in culture: 194 | 1.7 | 1.54 | 1.32 | 1.62 | 0.748 | 0.111 | 0.232 | 1.56
[5], days in culture: 201 | 1.78 | 1.98 | 1.99 | 2.1 | 0.726 | 0.134 | 0.279 | 1.54
[6], days in culture: 110 | 1.9 | 1.2 | 1.15 | 2 | 0.748 | 0.526 | 0.468 | 1.62
[6], days in culture: 131 | 2.22 | 3.35 | 3.06 | 3.3 | 1.98 | 0.424 | 0.71 | 3.75
[6], days in culture: 152 | 2.6 | 2.77 | 2.34 | 2.22 | 1.1 | 0.604 | 0.499 | 2.45
[7], days in culture: 111 | 1.26 | 1.25 | 0.897 | 1.31 | 0.756 | 0.365 | 0.252 | 1.5
[7], days in culture: 128 | 1.69 | 1.4 | 1.37 | 1.51 | 0.689 | 0.634 | 0.38 | 1.35

CTG-3D luminescence at 96 h
Settings | 12.5 pM | 0.00025 µM | 0.005 µM | 0.1 µM | 1 µM | 10 µM | 100 µM | 625 fM
[3] | 2.11 | 2.23 | 2.12 | 2.45 | 1.51 | 0.353 | 0.0571 | 2.11
[4] | 4.45 | 4.38 | 4.49 | 4.47 | 4.27 | 3.1 | 1.86 | 4.53
